# Results published in the NIST ThermoML archive (doi:10.1016/j.tca.2012.08.001).
# ± gives the expanded uncertainty stated by the source.
# Key:
# [1] = 298.2 K; 101.33 kPa; Liquid; Vibrating tube method
# [2] = refractive index (Na D-line) (dimensionless); details: 298.2 K; 101.33 kPa; Liquid; Standard Abbe refractometry
mass density [1],refractive index [2],Compound
826.8 ± 0.36 kg/m3,1.4344 ± 0.2,CCCCCCCCCCO [decan-1-ol]
1219.32 ± 0.61 kg/m3,1.3713 ± 0.2,O=CO [formic acid]
,1.3324 ± 0.2,O [water]
